Laboratory results published in ChEMBL document CHEMBL1137217, “Further structurally constrained analogues of cis-(6-benzhydrylpiperidin-3-yl)benzylamine with elucidation of bioactive conformation: discovery of 1,4-diazabicyclo[3.3.1]nonane derivatives and evaluation of their biological properties for the monoamine transporters” (J Med Chem, 2004).

How the values were obtained:
[1] = target: T1, Sodium-dependent dopamine transporter (Rattus norvegicus, UniProt P23977); assay: Inhibition of [3H]WIN-35428 binding to dopamine transporter of rat striatum; assay type: tissue-based
T1 sequence (P23977 whole entry): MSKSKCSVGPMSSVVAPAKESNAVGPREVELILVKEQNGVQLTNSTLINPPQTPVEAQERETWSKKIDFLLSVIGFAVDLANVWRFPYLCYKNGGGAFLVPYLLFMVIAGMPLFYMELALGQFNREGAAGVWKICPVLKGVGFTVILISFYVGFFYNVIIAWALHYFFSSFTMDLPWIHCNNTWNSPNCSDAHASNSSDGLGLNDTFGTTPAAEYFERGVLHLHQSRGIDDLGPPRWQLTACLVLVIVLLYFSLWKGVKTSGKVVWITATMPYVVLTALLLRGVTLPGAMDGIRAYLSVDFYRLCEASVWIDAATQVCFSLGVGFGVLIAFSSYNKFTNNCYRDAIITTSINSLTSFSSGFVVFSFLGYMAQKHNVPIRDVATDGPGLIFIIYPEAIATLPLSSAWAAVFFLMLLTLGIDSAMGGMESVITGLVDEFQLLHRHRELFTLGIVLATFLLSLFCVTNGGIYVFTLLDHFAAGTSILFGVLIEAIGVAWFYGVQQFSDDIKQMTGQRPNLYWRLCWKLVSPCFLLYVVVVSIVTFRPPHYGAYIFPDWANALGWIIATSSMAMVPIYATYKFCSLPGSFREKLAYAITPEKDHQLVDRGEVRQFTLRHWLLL

[2] = target: Norepinephrine transporter (Rattus norvegicus, UniProt Q9WTR4); assay: Inhibition of [3H]nisoxetine binding to norepinephrine transporter of rat cerebral cortex; assay type: tissue-based
Norepinephrine transporter, sequence (Q9WTR4 whole entry): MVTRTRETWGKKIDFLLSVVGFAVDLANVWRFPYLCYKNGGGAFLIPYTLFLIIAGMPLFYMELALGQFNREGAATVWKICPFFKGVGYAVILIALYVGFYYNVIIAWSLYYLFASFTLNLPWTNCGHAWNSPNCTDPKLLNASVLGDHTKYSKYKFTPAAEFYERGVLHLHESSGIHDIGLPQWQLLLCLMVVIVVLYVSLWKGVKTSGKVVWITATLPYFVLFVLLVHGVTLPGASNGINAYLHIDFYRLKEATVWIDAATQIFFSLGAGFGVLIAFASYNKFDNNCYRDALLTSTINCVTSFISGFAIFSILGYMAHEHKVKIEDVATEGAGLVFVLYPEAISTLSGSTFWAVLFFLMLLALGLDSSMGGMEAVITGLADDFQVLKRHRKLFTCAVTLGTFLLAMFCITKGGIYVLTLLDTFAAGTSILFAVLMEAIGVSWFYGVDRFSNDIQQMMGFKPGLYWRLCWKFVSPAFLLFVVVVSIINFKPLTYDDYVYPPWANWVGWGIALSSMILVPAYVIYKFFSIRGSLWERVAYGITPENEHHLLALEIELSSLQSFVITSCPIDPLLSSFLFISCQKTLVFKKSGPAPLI

[3] = target: T1, Sodium-dependent dopamine transporter; assay: Concentration required to inhibit [3H]DA (dopamine) uptake into rat striatal synaptosomes; assay type: functional, subcellular, Brain
[4] = target: Monoamine transporters; serotonin & dopamine (Rattus norvegicus) (UniProt P31652+P23977); assay: Relative binding affinity for serotonin and dopamine transporters, ratio of IC50; assay type: protein assay
Monoamine transporters; serotonin & dopamine (Rattus norvegicus), sequence (P23977 whole entry, looked up): as the sequence (P23977 whole entry) above
Monoamine transporters; serotonin & dopamine (Rattus norvegicus), sequence (P31652 whole entry, looked up): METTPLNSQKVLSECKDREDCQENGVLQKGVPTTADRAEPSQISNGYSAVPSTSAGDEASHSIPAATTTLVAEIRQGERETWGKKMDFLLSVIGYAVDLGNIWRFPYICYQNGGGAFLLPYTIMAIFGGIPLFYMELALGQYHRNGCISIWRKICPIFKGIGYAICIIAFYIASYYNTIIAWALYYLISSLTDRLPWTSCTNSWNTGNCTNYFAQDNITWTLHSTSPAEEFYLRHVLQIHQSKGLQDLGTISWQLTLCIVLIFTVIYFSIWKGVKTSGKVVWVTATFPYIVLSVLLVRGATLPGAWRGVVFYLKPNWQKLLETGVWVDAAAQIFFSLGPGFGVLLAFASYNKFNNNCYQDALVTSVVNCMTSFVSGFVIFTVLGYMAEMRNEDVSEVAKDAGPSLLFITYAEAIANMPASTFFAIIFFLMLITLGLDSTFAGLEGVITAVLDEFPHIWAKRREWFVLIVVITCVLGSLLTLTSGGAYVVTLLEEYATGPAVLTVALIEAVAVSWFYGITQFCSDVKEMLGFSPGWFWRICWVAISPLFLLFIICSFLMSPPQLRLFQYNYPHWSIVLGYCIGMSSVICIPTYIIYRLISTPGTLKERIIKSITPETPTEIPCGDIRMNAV

[5] = target: Sodium-dependent dopamine transporter (Rattus norvegicus) (UniProt P23977); assay: Ratio of IC50 for [3H]DA uptake to and dopamine transporter binding
Sodium-dependent dopamine transporter (Rattus norvegicus), sequence (P23977 whole entry): as the sequence (P23977 whole entry) above

[6] = target: Sodium-dependent serotonin transporter (Rattus norvegicus, UniProt P31652); assay: Inhibition of [3H]citalopram binding to serotonin transporter of rat cerebral cortex; assay type: tissue-based
Sodium-dependent serotonin transporter, sequence (P31652 whole entry): as the sequence (P31652 whole entry, looked up) above

[7] = target: Monoamine transporters; Norepininephrine & dopamine (Rattus norvegicus) (UniProt P23977+Q9WTR4); assay: Relative binding affinity for norepinephrine and dopamine transporter, ratio of IC50; assay type: protein assay

Row | Structure (SMILES) | IC50 [1] [nM] | IC50 [2] [nM] | IC50 [3] [nM] | Selectivity [4] | Selectivity [5] | IC50 [6] [nM] | Selectivity [7]
1 | COc1ccc(CN2CCN3C[C@@H]2CC[C@H]3C(c2ccccc2)c2ccccc2)cc1 | 22.5 | > 10000 | 18.4 | 384 | 0.8 | 8650 | > 444
2 | N#Cc1ccc(CNC2CCC(C(c3ccccc3)c3ccccc3)NC2)cc1 (stereo unspecified) | 11.2 | 1670 | 9.1 | 38 | 0.8 | 434 | 148
3 | COc1ccc(CNC2CCC(C(c3ccccc3)c3ccccc3)NC2)cc1 (stereo unspecified) | 47.5 | 1110 | 40.5 | 22 | 0.85 | 1040 | 23
4 | COc1ccc(CN2CCN3C[C@H]2CC[C@@H]3C(c2ccccc2)c2ccccc2)cc1 | 329 | > 10000 | 269 | 20 | 0.8 | 6630 | > 30
5 | Fc1ccc(CCN2CCN3CC2CCC3C(c2ccccc2)c2ccccc2)cc1 (stereo unspecified) | 565 | > 10000 |  | 4 |  | 2550 | > 18
6 | CN1CCN2CC1CCC2C(c1ccccc1)c1ccccc1 (stereo unspecified) | 4710 | 60100 |  | 33 |  | 157000 | 13
7 | CN(Cc1ccc(F)cc1)C1CCC(C(c2ccccc2)c2ccccc2)N(C)C1 (stereo unspecified) | 225 | 7000 |  | 10 |  | 2360 | 31
8 | O=S(=O)(Nc1ccc(CN2CCN3CC2CCC3C(c2ccccc2)c2ccccc2)cc1)c1ccc(Cl)cc1 (stereo unspecified) | 371 | 3480 |  | 11 |  | 4130 | 9
9 | Fc1ccc(CNC2CCC(C(c3ccccc3)c3ccccc3)NC2)cc1 (stereo unspecified) | 33.8 | 1420 | 53.8 |  |  |  | 
10 | Fc1ccc(CNC2CCC(C(c3ccccc3)c3ccccc3)N(Cc3ccc(F)cc3)C2)cc1 (stereo unspecified) | 1240 | 12600 |  | 10 |  | 18900 | 12
